From patent US12344623B2, “Thiazolopyridine derivatives as adenosine receptor antagonists” (Merck Patent GmbH, priority 2019, dated 2025)
Where two headings read alike, the source gives them in different places.

How the values were obtained:
Format in all cases: cell-based
human A2A receptor [1] = target: T1, human A2A receptor (Homo sapiens, UniProt P29274); assay: Human T cells, endogenous A2A receptor, cAMP, agonist NECA
Experimental: The endogenous functional activity of the Gs-coupled human A2A receptor was measured in T cells, where this receptor is highly expressed. Determination of receptor activity was done by quantification of cAMP, which is a second messenger for adenosine receptors.
In short, human pan T cells were isolated from human PBMC (MACS Pan T Cell Isolation Kit, Miltenyi Biotec) that have been derived from fresh whole blood. The T cells were seeded in 384-well microtiter plates and treated with test compounds. […] Finally, HTRF reagents (cAMP Femto Kit, CisBio) were added to the wells, and after 1 h cellular cAMP levels were determined using the ENVISION (Perkin Elmer) plate reader.
The obtained raw data were normalized against the inhibitor control and the neutral control (DMSO) and the normalized data were fitted using Genedata Screener software.

human A2B receptor = target: T2, human A2B receptor (Homo sapiens, UniProt P29275); assay: Functional A2B receptor activity, recombinant HEK293 cells, cAMP (HTRF), agonist NECA
T2 construct: expressed in transfected cells; host or cells: HEK293
T2 sequence (P29275 1-332): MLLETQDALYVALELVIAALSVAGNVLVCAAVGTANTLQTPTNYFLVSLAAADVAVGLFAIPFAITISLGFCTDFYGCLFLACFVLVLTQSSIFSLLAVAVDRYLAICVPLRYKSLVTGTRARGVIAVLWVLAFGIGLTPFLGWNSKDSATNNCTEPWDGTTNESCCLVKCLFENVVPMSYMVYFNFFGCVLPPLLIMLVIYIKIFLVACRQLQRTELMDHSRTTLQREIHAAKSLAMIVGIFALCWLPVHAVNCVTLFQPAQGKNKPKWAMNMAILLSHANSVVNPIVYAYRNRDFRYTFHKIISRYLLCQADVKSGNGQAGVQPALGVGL
Outline: (§1)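 Forskolin, test compounds and agonist were added together to the cells and incubated for 30 min. Cellular cAMP was then quantified by HTRF. Raw signals were normalized to an inhibitor control and a neutral DMSO control, and the normalized data were curve-fitted.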

human A1 receptor = target: T3, human A1 receptor (Homo sapiens, UniProt P30542); assay: Functional A1 receptor activity, recombinant CHO cells, cAMP (HTRF), forskolin, agonist CPA; details: recombinant CHO cells, forskolin, agonist CPA, read-out: Functional A1 receptor activity, CHO, cAMP, IC50
T3 construct: expressed in transfected cells; host or cells: CHO
T3 sequence (P30542 1-326): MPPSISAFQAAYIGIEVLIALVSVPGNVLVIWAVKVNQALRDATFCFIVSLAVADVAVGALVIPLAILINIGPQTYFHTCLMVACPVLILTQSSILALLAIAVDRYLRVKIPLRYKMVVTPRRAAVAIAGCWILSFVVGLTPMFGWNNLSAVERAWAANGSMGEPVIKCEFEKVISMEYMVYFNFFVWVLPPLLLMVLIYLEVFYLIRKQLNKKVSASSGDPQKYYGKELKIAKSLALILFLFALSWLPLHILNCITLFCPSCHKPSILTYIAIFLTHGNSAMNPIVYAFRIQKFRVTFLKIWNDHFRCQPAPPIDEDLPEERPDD
Outline: (§2)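 Gi-coupled readout: CHO cells expressing human A1 or A3 receptor were treated with forskolin, test compound and agonist (CPA for A1, IB-MECA for A3) for 30 min; cellular cAMP was then measured by HTRF. Data were normalized to inhibitor and DMSO controls and curve-fitted.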

human A3 receptor = target: T4, human A3 receptor (Homo sapiens, UniProt P0DMS8); assay: Functional A3 receptor activity, recombinant CHO cells, cAMP (HTRF), forskolin, agonist IB-MECA; details: recombinant CHO cells, forskolin, agonist IB-MECA, read-out: Functional A3 receptor activity, CHO, cAMP, IC50
T4 construct: expressed in transfected cells; host or cells: CHO
T4 sequence (P0DMS8 1-318): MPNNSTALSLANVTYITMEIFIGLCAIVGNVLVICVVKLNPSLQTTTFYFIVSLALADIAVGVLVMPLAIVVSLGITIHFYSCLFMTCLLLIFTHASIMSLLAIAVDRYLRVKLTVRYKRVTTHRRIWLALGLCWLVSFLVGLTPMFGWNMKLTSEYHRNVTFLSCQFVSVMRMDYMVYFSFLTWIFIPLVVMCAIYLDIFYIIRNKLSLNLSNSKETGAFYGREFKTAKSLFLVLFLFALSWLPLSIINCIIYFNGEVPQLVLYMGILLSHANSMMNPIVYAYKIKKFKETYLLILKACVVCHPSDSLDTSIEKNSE
Outline: as §2

human A2A receptor [2] = target: T1, human A2A receptor; assay: Functional A2A receptor activity, recombinant HEK293 cells, cAMP (HTRF), agonist NECA; parameters: expressed in transfected cells; host or cells: HEK293
Outline: as §1

[3] = read-out: hTcell data, cAMP, IC50
[4] = read-out: Functional A2B receptor activity, HEK293, cAMP, IC50
[5] = read-out: Functional A2A receptor activity, HEK293, cAMP, IC50

T1 sequence (P29274 whole entry): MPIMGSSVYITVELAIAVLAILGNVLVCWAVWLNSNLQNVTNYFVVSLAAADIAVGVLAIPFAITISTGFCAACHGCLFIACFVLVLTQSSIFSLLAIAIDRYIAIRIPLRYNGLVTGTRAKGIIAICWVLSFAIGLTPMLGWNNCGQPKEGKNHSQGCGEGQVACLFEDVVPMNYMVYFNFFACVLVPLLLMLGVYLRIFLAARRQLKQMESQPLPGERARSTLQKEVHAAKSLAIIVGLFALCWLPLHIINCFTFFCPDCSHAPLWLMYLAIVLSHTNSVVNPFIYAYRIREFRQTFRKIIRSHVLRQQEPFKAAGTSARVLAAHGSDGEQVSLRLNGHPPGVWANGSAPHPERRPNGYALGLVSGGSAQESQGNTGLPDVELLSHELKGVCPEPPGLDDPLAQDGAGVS

Row | Compound | IC50 (human A2A receptor [1]; [3]) [nM] | IC50 (human A2B receptor; [4]) [nM] | IC50 (human A1 receptor) [nM] | IC50 (human A3 receptor) [nM] | IC50 (human A2A receptor [2]; [5]) [nM] | also measured
1 | COc1ncc(C2=CCOCC2)c2sc(NC(=O)N3CCC(N4C(=O)CSC4=O)CC3)nc12 [Compound 91, N-[7-(3,6-dihydro-2H-pyran-4-yl)-4-methoxy-[1,3]thiazolo[4,5-c]pyridin-2-yl]-4-(2,4-dioxo-1,3-thiazolidin-3-yl)piperidine-1-carboxamide] | < 10 | < 10 | > 1000 | > 1000 | < 10 | 
2 | COc1cnc(N2CCOCC2)c2sc(NC(=O)N3CCC(O)CC3)nc12 | < 1000 |  |  |  |  | 
3 | COc1ncc(C2=CCOCC2)c2sc(NC(=O)c3cnc(C(=O)O)[nH]3)nc12 [Compound 168, 5-[7-(3,6-Dihydro-2H-pyran-4-yl)-4-methoxy-thiazolo[4,5-c]pyridin-2-ylcarbamoyl]-1H-imidazole-2-carboxylic acid] | < 100 | < 100 |  | > 1000 | < 10 | 
4 | COc1ncc(C2=CCCCC2)c2sc(NC(=O)N3CCC4(CCOCC4)C3)nc12 [Compound 59, 8-Oxa-2-aza-spiro[4.5]decane-2-carboxylic acid (7-cyclohex-1-enyl-4-methoxy-thiazolo[4,5-c]pyridin-2-yl)-amide] | < 10 | < 100 | < 1000 | > 1000 | < 10 | 
5 | [2H]C([2H])([2H])Oc1ncc(C2=CCOCC2)c2sc(NC(=O)N3CC[C@@]4(CCCOC4)C3)nc12 [Compound 174, (5S)-N-[7-(3,6-dihydro-2H-pyran-4-yl)-4-(2H3)methoxy-[1,3]thiazolo[4,5-c]pyridin-2-yl]-7-oxa-2-azaspiro[4.5]decane-2-carboxamide] |  |  | > 1000 | > 1000 |  | IC50 (human A2A receptor [1]): < 10 nM; IC50 (human A2B receptor): < 100 nM; IC50 (human A2A receptor [2]): < 10 nM
6 | COc1ncc(-c2cnn(Cc3ccccn3)c2)c2sc(NC(=O)N3CCC4(CCOCC4)C3)nc12 [Compound 69, 8-Oxa-2-aza-spiro[4.5]decane-2-carboxylic acid [4-methoxy-7-(1-pyridin-2-ylmethyl-1H-pyrazol-4-yl)-thiazolo[4,5-c]pyridin-2-yl]-amide] | < 10 | < 10 | < 100 | < 1000 | < 10 | 
7 | COc1ncc(-c2cnn(CC(F)F)c2)c2sc(NC(=O)N3CCC4(CCOCC4)C3)nc12 [Compound 74, 8-Oxa-2-aza-spiro[4.5]decane-2-carboxylic acid {7-[1-(2,2-difluoro-ethyl)-1H-pyrazol-4-yl]-4-methoxy-thiazolo[4,5-c]pyridin-2-yl}-amide] | < 100 | < 100 | < 1000 | > 1000 | < 10 | 
8 | COc1ncc(C2=CCOCC2)c2sc(NC(=O)Nc3ccc(N4CCCC4=O)cc3)nc12 [Compound 89, 3-[7-(3,6-dihydro-2H-pyran-4-yl)-4-methoxy-[1,3]thiazolo[4,5-c]pyridin-2-yl]-1-[4-(2-oxopyrrolidin-1-yl)phenyl]urea] | < 10 | < 100 | > 1000 | > 1000 | < 10 | 
9 | COc1ncc(-c2cnn(Cc3cccnc3)c2)c2sc(NC(=O)N3CCC4(CCOCC4)C3)nc12 [Compound 68, 8-Oxa-2-aza-spiro[4.5]decane-2-carboxylic acid [4-methoxy-7-(1-pyridin-3-ylmethyl-1H-pyrazol-4-yl)-thiazolo[4,5-c]pyridin-2-yl]-amide] | < 10 | < 10 |  | > 1000 | < 10 | 
10 | COc1ncc(C2=CCOCC2)c2sc(NC(=O)c3c[nH]c(-c4ccncc4)n3)nc12 [Compound 165, 2-Pyridin-4-yl-1H-imidazole-4-carboxylic acid [7-(3,6-dihydro-2H-pyran-4-yl)-4-methoxy-thiazolo[4,5-c]pyridin-2-yl]-amide] | < 10 | < 10 |  | > 1000 | < 10 | 
11 | COc1ncc(C2=CCOCC2)c2sc(NC(=O)c3ccc(C(=O)N4CCC(C)(O)CC4)cc3)nc12 [Compound 129, N-[7-(3,6-Dihydro-2H-pyran-4-yl)-4-methoxy-thiazolo[4,5-c]pyridin-2-yl]-4-(4-hydroxy-4-methyl-piperidine-1-carbonyl)-benzamide] |  | < 100 | < 1000 | > 1000 | < 10 | 
12 | COc1ncc(C2=CCOCC2)c2sc(NC(=O)N3CCC4(CCOC4)C3)nc12 (stereo not shown) [Compound 108, N-[7-(3,6-dihydro-2H-pyran-4-yl)-4-methoxy-[1,3]thiazolo[4,5-c]pyridin-2-yl]-2-oxa-7-azaspiro[4.4]nonane-7-carboxamide] |  | < 10 | < 1000 | > 1000 | < 10 | 
13 | COc1cnc(N2CCOCC2)c2sc(NC(=O)N3CCC4(CCCO4)CC3)nc12 [drawing 189, reference compound] |  | < 1000 |  |  | < 10 | IC50 (human A1 receptor; cAMP): > 1000 nM; IC50 (human A3 receptor; cAMP): > 1000 nM
14 | COc1nc(F)c(C2CCOCC2)c2sc(NC(=O)C3CC3)nc12 [Compound 28, Cyclopropanecarboxylic acid [6-fluoro-4-methoxy-7-(tetrahydro-pyran-4-yl)-thiazolo[4,5-c]pyridin-2-yl]-amide] |  | < 100 | < 1000 | < 1000 | < 10 | 

Further lines, with some results ahead:

Row | IC50 (human A2A receptor [1]; [3]) [nM] | IC50 (human A2B receptor; [4]) [nM] | IC50 (human A1 receptor) [nM] | IC50 (human A3 receptor) [nM] | IC50 (human A2A receptor [2]; [5]) [nM] | Compound | also measured
15 | < 1000 |  |  |  |  | COc1ccc(N2CCOCC2)c2sc(NC(=O)N3CCCCC3)nc12 [drawing 221] | 
16 | < 1000 |  |  |  |  | COc1cnc(N2CCOCC2)c2sc(NC(=O)N3CCC(CO)CC3)nc12 [drawing 217] | 
17 | < 1000 |  |  |  |  | COc1cnc(N2CCOCC2)c2sc(NC(=O)N3CCC4(CCN(C)C4=O)CC3)nc12 [drawing 215] | 
18 | < 1000 |  |  |  |  | COc1ccc(N2CCOCC2)c2sc(NC(=O)N3CCC4(CCCO4)CC3)nc12 [drawing 219] | 
19 | < 1000 |  |  |  |  | COc1ccc(-c2ccccc2)c2sc(NC(=O)NCCN3CCCCC3)nc12 [drawing 216] | 
20 | < 1000 |  |  |  |  | COc1cnc(N2CCOCC2)c2sc(NC(=O)N3CCC4(CCCO4)CC3)nc12 [drawing 218] | 
21 | < 1000 |  |  |  |  | COc1cnc(N2CCOCC2)c2sc(NC(=O)N3CCCCC3)nc12 [drawing 222] | 
22 | < 1000 |  |  |  |  | COc1cnc(N2CCOCC2)c2sc(NC(=O)N3CCOCC3)nc12 [drawing 223] | 
23 |  | < 1000 |  |  | < 100 | COc1cnc(C2CCOCC2)c2sc(NC(=O)N3CCC(O)CC3)nc12 [drawing 190, reference compound] | IC50 (human A1 receptor; cAMP): > 1000 nM; IC50 (human A3 receptor; cAMP): < 1000 nM
24 |  | < 1000 |  |  | < 10 | COc1cnc(N2CCOCC2)c2sc(NC(=O)N3CCCCC3)nc12 [drawing 192, reference compound] | IC50 (human A1 receptor; cAMP): > 1000 nM; IC50 (human A3 receptor; cAMP): < 100 nM
25 |  | < 1000 |  |  | < 10 | COc1ccc(-c2cnn(C)c2)c2sc(NC(=O)c3ccnc(N4CCOCC4)c3)nc12 [reference compound] | IC50 (human A1 receptor; cAMP): < 1000 nM; IC50 (human A3 receptor; cAMP): < 1000 nM
